Laboratory results taken from US20260250320A1, “LIPIDATED PEPTIDE INHIBITORS OF INTERLEUKIN-23 RECEPTOR” (Janssen Pharmaceutica NV, priority 2023, published 2026).
*1 amine or outer side, *2 acyl side, *3 side chain or, on linkers, in order; H or OH if unused. Where a SMILES comes first, the peptide text is derived from it. Bridges are numbered along the chain shown (N, C = ends). Side-chain parts run from the residue outwards. [ ]: non-standard residue; d: D form. The star is where a group is joined. FITC = O=C1OC2(c3ccc(O)cc3Oc3cc(O)ccc32)c2ccc(NC(=S)*)cc21; PEG12 = NCCOCCOCCOCCOCCOCCOCCOCCOCCOCCOCCOCCOCCC(=O)O; Trp(7-Me) = Cc1cccc2c(C[C@H](N)C(=O)O)c[nH]c12; C20 diacid = O=C(O)CCCCCCCCCCCCCCCCCCC(=O)*; C18 diacid = O=C(O)CCCCCCCCCCCCCCCCC(=O)*; X40 = C=C(/C=N\C)C[C@H](N[*:1])C(=O)[*:2]; γGlu = O=C(O)[C@H](CCC(=O)[*:2])N[*:1]; 2Nal = N[C@@H](Cc1ccc2ccccc2c1)C(=O)O; AEF = NCCOc1ccc(C[C@H](N)C(=O)O)cc1; X2 = C[N+](C)(C)C[C@@H](CC(=O)O)N*; 3Pal = N[C@@H](Cc1cccnc1)C(=O)O; NMeK = CN[C@@H](CCCCN)C(=O)O; PEG4 = NCCOCCOCCOCCOCCC(=O)O; Pen = CC(C)(S)[C@H](N)C(=O)O; Suc = O=C(CCC(=O)[*:2])[*:1]; Thp = NC1(C(=O)O)CCOCC1; AEEA = NCCOCCOCC(=O)O; Sar = CNCC(=O)O

What was measured:
[1] = target: T1, IL-23R (Homo sapiens, UniProt Q5VWK5); assay: IL23R Reporter Assay; assay type: cell-based; settings: HEK293 cells containing IL-23R, IL-12Rβ1 and STAT-inducible firefly luciferase reporter; 10 ng/mL IL-23 (EC90); 5 h
T1 construct: HEK293 cells containing IL-23R, IL-12Rβ1 and a firefly luciferase reporter gene driven by a STAT-inducible promoter (Promega); host or cells: HEK293
T1 sequence (Q5VWK5 24-629): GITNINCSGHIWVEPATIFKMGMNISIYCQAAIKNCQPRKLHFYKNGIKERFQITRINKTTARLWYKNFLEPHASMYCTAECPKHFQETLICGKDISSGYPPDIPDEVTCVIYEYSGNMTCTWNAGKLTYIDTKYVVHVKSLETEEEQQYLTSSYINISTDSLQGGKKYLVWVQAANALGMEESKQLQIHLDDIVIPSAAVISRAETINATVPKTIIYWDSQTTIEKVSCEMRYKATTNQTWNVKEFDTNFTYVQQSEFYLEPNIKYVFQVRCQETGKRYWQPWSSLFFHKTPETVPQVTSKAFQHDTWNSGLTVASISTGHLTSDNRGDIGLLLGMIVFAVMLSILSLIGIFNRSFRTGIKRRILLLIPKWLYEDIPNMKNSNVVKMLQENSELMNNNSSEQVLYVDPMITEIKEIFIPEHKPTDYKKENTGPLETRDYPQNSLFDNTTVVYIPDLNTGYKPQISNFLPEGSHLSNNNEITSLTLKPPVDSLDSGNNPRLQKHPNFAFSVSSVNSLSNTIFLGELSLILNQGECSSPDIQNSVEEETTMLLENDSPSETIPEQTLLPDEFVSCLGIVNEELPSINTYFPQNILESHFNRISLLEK
Outline: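 IC50 values were fitted with a 4-parameter Hill equation to luciferase signal, scaled between IL-23-only wells (0% inhibition) and 30 μM reference inhibitor (100%). The readout was a STAT-inducible reporter in IL-23R/IL-12Rβ1 HEK293 cells, stimulated with added 10 ng/mL IL-23 (EC90) for 5 h at 37° C and developed with BioGlo.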

[2] = system: IL-23-stimulated phosphorylated STAT3 in peripheral blood mononuclear cells (PBMCs); assay: PBMC pSTAT3 Assay; assay type: cell-based; settings: PBMCs from healthy donors; 30 min preincubation with peptide; IL-23 5 ng/mL for 30 min; phospho-STAT3 by MSD
Outline: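 Phospho-STAT3 quantified by Meso Scale assay in lysates of PBMCs exposed to IL-23 (5 ng/mL, 30 min, 37 °C) after 30 min peptide pretreatment. Cells were cryopreserved donor PBMCs activated 4 days with anti-CD3 plus IL-1β (100 ng/mL) and starved ~4 h; IC50 reported.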

SMILES	IC50 [1] [nM]	IC50 [2] [nM]
CC(=O)NCCCC[C@@H]1NC(=O)[C@H](Cc2c[nH]c3c(C)cccc23)NC(=O)[C@H]([C@@H](C)O)NC(=O)[C@H](CC(N)=O)NC(=O)[C@@H](NC(=O)[C@@H](CCCNC(=N)N)NC(C)=O)C(C)(C)SSC(C)(C)[C@@H](C(=O)N[C@@H](Cc2ccc(OCCN)cc2)C(=O)N[C@@H](Cc2ccc3ccccc3c2)C(=O)NC2(C(=O)N[C@@H](CCCCNC(=O)COCCOCCNC(=O)COCCOCCNC(=O)CC[C@H](NC(=O)CCCCCCCCCCCCCCCCC(=O)O)C(=O)O)C(=O)N[C@@H](CC(N)=O)C(=O)N[C@@H](Cc3cccnc3)C(=O)N(C)[C@@H](CCCCNC(=O)CCC(=O)N[C@H](CC(=O)O)C[N+](C)(C)C)C(N)=O)CCOCC2)NC1=O [compound 21, MeCO-r-Pen(3)-N-T-7MeW-K(Ac)-Pen(3)-AEF-2Nal-THP-K(PEG2PEG2gEC18OH)-N-3Pya-NMeK(d)-CONH2] (Ac-[dR][Pen]NT[Trp(7-Me)]K(Ac)[Pen][AEF][2Nal][Thp]K([AEEA-AEEA-γGlu-C18 diacid])N[3Pal][NMeK]([Suc-X2])-NH2; disulfide 2-7)	< 50	< 0.5
CC(=O)NCCCC[C@@H]1NC(=O)[C@H](Cc2c[nH]c3c(C)cccc23)NC(=O)[C@H]([C@@H](C)O)NC(=O)[C@H](CC(N)=O)NC(=O)[C@@H](NC(=O)[C@@H](CCCNC(=N)N)NC(C)=O)C(C)(C)SSC(C)(C)[C@@H](C(=O)N[C@@H](Cc2ccc(OCCNC(=O)CCC(=O)N[C@H](CC(=O)O)C[N+](C)(C)C)cc2)C(=O)N[C@@H](Cc2ccc3ccccc3c2)C(=O)NC2(C(=O)N[C@@H](CCCCNC(=O)COCCOCCNC(=O)COCCOCCNC(=O)CC[C@H](NC(=O)CCCCCCCCCCCCCCCCC(=O)O)C(=O)O)C(=O)N[C@@H](CC(N)=O)C(=O)N[C@@H](Cc3cccnc3)C(=O)N(C)CC(N)=O)CCOCC2)NC1=O [compound 22, MeCO-r-Pen(3)-N-T-7MeW-K(Ac)-Pen(3)-AEF(d)-2Nal-THP-K(PEG2PEG2gEC18OH)-N-3Pya-Sar-CONH2] (Ac-[dR][Pen]NT[Trp(7-Me)]K(Ac)[Pen][AEF]([Suc-X2])[2Nal][Thp]K([AEEA-AEEA-γGlu-C18 diacid])N[3Pal][Sar]-NH2; disulfide 2-7)	< 50	< 0.5
C=CCOC(=O)CN1CCOc2ccc(cc2)C[C@H](NC(=O)[C@H]2NC(=O)[C@H](CCCCNC(C)=O)NC(=O)[C@H](Cc3c[nH]c4c(C)cccc34)NC(=O)[C@H]([C@@H](C)O)NC(=O)[C@H](CCCCNC(=O)COCCOCCNC(=O)COCCOCCNC(=O)CC[C@H](NC(=O)CCCCCCCCCCCCCCCCCC(=O)O)C(=O)O)NC(=O)[C@@H](NC(=O)CCOCCOCCNC(=O)COCCOCCNC(=O)COCCOCCNC(=O)CC[C@H](NC(=O)CCCCCCCCCCCCCCCCC(=O)O)C(=O)O)C(C)(C)SSC2(C)C)C(=O)N[C@@H](Cc2ccc3ccccc3c2)C(=O)NC2(CCOCC2)C(=O)N[C@@H]1C(=O)N[C@@H](CC(N)=O)C(=O)N[C@@H](Cc1cccnc1)C(=O)N(C)CC(N)=O [compound 24, AEEP(PEG2PEG2gEC18OH)-Pen(3)-K(PEG2PEG2gEC18OH)-T-7MeW-K(Ac)-Pen(3)-AEF-2Nal-THP-E(OAll)-N-3Pya-Sar-CONH2]	50 to 500	0.5 to 5
CC(=O)NCCCC[C@@H]1NC(=O)[C@H](Cc2c[nH]c3c(C)cccc23)NC(=O)[C@H]([C@@H](C)O)NC(=O)[C@H](CC(N)=O)NC(=O)[C@@H](NC(=O)[C@@H](CCCNC(=N)N)NC(=O)CCOCCOCCOCCOCCNC(=S)Nc2ccc3c(c2)C(=O)OC32c3ccc(O)cc3Oc3cc(O)ccc32)C(C)(C)SSC(C)(C)[C@@H](C(=O)N[C@@H](Cc2ccc(OCCN)cc2)C(=O)N[C@@H](Cc2ccc3ccccc3c2)C(=O)NC2(C(=O)N[C@@H](CCC(=O)O)C(=O)N[C@@H](CC(N)=O)C(=O)N[C@@H](Cc3cccnc3)C(=O)N(C)CC(=O)N[C@@H](CCCCNC(=O)COCCOCCNC(=O)COCCOCCNC(=O)CC[C@H](NC(=O)CCCCCCCCCCCCCCCCC(=O)O)C(=O)O)C(N)=O)CCOCC2)NC1=O [compound 25, FITCPEG4CO-r-Pen(3)-N-T-7MeW-K(Ac)-Pen(3)-AEF-2Nal-THP-E-N-3Pya-Sar-K(PEG2PEG2gEC18OH)-CONH2] ({FITC-PEG4}-[dR][Pen]NT[Trp(7-Me)]K(Ac)[Pen][AEF][2Nal][Thp]EN[3Pal][Sar]K([AEEA-AEEA-γGlu-C18 diacid])-NH2; disulfide 2-7)	50 to 500	0.5 to 5
C=C(/C=N\C)C[C@H](NC(=O)[C@H](CC(N)=O)NC(=O)[C@H](CCC(=O)O)NC(=O)C1(NC(=O)[C@H](Cc2ccc3ccccc3c2)NC(=O)[C@H](Cc2ccc(OCCN)cc2)NC(=O)[C@H]2NC(=O)[C@H](CCCCNC(C)=O)NC(=O)[C@H](Cc3c[nH]c4c(C)cccc34)NC(=O)[C@H]([C@@H](C)O)NC(=O)[C@H](CC(N)=O)NC(=O)[C@@H](NC(=O)[C@@H](CCCCNC(=O)CCOCCOCCOCCOCCOCCOCCOCCOCCOCCOCCOCCOCCNC(=O)CC[C@H](NC(=O)CCCCCCCCCCCCCCCCCCC(=O)O)C(=O)O)NC(C)=O)C(C)(C)SSC2(C)C)CCOCC1)C(=O)N(C)CC(N)=O [compound 26, MeCO-k(PEG12gEC20OH)-Pen(3)-N-T-7MeW-K(Ac)-Pen(3)-AEF-2Nal-THP-E-N-3Pya-Sar-CONH2] (Ac-[dK]([PEG12-γGlu-C20 diacid])[Pen]NT[Trp(7-Me)]K(Ac)[Pen][AEF][2Nal][Thp]EN[X40][Sar]-NH2; disulfide 2-7)	< 50	< 0.5

Second part, led by results:

IC50 [1] [nM]	SMILES	IC50 [2] [nM]
< 50	CC(=O)NCCCC[C@@H]1NC(=O)[C@H](Cc2c[nH]c3c(C)cccc23)NC(=O)[C@H]([C@@H](C)O)NC(=O)[C@H](CC(N)=O)NC(=O)[C@@H](NC(C)=O)C(C)(C)SSC(C)(C)[C@@H](C(=O)N[C@@H](Cc2ccc(OCCN)cc2)C(=O)N[C@@H](Cc2ccc3ccccc3c2)C(=O)NC2(C(=O)N[C@@H](CCC(=O)O)C(=O)N[C@@H](CC(N)=O)C(=O)N[C@@H](Cc3cccnc3)C(=O)N(C)CC(=O)N[C@@H](CCCCNC(=O)COCCOCCNC(=O)COCCOCCNC(=O)CC[C@H](NC(=O)CCCCCCCCCCCCCCCCC(=O)O)C(=O)O)C(N)=O)CCOCC2)NC1=O [compound 27, MeCO-Pen(3)-N-T-7MeW-K(Ac)-Pen(3)-AEF-2Nal-THP-E-N-3Pya-Sar-K(PEG2PEG2gEC18OH)-CONH2]	< 0.5
50 to 500	CC(=O)NCCCC[C@@H]1NC(=O)[C@H](Cc2c[nH]c3c(C)cccc23)NC(=O)[C@H]([C@@H](C)O)NC(=O)[C@H](CC(N)=O)NC(=O)[C@@H](NC(C)=O)C(C)(C)SSC(C)(C)[C@@H](C(=O)N[C@@H](Cc2ccc(OCCN)cc2)C(=O)N[C@@H](Cc2ccc3ccccc3c2)C(=O)NC2(C(=O)N[C@@H](CCCCNC(=O)CCC(=O)N[C@H](CC(=O)O)C[N+](C)(C)C)C(=O)N[C@@H](CC(N)=O)C(=O)N[C@@H](Cc3cccnc3)C(=O)N(C)[C@@H](CCCCNC(=O)COCCOCCNC(=O)COCCOCCNC(=O)CC[C@H](NC(=O)CCCCCCCCCCCCCCCCC(=O)O)C(=O)O)C(N)=O)CCOCC2)NC1=O [compound 28, MeCO-Pen(3)-N-T-7MeW-K(Ac)-Pen(3)-AEF-2Nal-THP-K(d)-N-3Pya-NMeK(PEG2PEG2gEC18OH)-CONH2]	< 0.5
< 50	CC(=O)NCCCC[C@@H]1NC(=O)[C@H](Cc2c[nH]c3c(C)cccc23)NC(=O)[C@H]([C@@H](C)O)NC(=O)[C@H](CCCCNC(=O)CCC(=O)N[C@H](CC(=O)O)C[N+](C)(C)C)NC(=O)[C@@H](NC(=O)[C@H](CCCNC(=N)N)NC(C)=O)C(C)(C)SSC(C)(C)[C@@H](C(=O)N[C@@H](Cc2ccc(OCCN)cc2)C(=O)N[C@@H](Cc2ccc3ccccc3c2)C(=O)NC2(C(=O)N[C@@H](CCC(=O)O)C(=O)N[C@@H](CC(N)=O)C(=O)N[C@@H](Cc3cccnc3)C(=O)N(C)[C@@H](CCCCNC(=O)COCCOCCNC(=O)COCCOCCNC(=O)CC[C@H](NC(=O)CCCCCCCCCCCCCCCCC(=O)O)C(=O)O)C(N)=O)CCOCC2)NC1=O [compound 30, MeCO-r-Pen(3)-K(d)-T-7MeW-K(Ac)-Pen(3)-AEF-2Nal-THP-E-N-3Pya-NMeK(PEG2PEG2gEC18OH)-CONH2] (Ac-R[Pen]K([Suc-X2])T[Trp(7-Me)]K(Ac)[Pen][AEF][2Nal][Thp]EN[3Pal][NMeK]([AEEA-AEEA-γGlu-C18 diacid])-NH2; disulfide 2-7)	< 0.5
